The record followed here is ChEMBL document CHEMBL1122202, “Ultra-short-acting beta-adrenergic receptor blocking agents. 1. (Aryloxy)propanolamines containing esters in the nitrogen substituent” (J Med Chem, 1982).

Experiment [1] deals with Beta-2 adrenergic receptor (Cavia porcellus, UniProt Q8K4Z4). Kind of experiment: In vitro ability to block beta-2 adrenergic receptor in guinea pig trachea. The class given is tissue-based. As to conditions: read-out: pA2 (converted).
For experiment [2], the target named is T1, Beta-1 adrenergic receptor (Cavia porcellus, UniProt B0FL73). Briefly: In vitro ability to block beta-1 adrenergic receptor in guinea pig right atria. As to conditions: read-out: pA2 (converted).
T1 sequence (B0FL73 whole entry): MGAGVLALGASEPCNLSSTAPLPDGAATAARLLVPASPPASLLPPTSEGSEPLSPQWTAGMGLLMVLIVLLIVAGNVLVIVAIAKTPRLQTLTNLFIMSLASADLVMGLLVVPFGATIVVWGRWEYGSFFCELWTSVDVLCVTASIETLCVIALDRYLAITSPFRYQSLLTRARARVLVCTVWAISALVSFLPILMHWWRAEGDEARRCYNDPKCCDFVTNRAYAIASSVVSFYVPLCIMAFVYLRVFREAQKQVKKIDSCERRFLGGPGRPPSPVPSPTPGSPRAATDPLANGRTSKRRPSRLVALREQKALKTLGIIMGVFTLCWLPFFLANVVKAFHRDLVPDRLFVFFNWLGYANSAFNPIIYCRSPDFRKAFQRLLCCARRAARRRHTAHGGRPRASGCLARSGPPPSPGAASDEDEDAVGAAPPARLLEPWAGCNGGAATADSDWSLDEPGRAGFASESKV
Experiment [3] is described as follows: Cardioselectivity expressed as antilog of pA2 (atria)-pA2 (trachea).
Experiment [4] addresses T1, Beta-1 adrenergic receptor. Briefly: The compound was tested in vitro for its ability to block Beta-1 adrenergic receptor in guinea pig right atria. As to conditions: read-out: pA2 (converted).
Experiment [5] has as its target Beta-1 adrenergic receptor (Cavia porcellus) (UniProt B0FL73). Briefly: The compound was tested in vivo for its ability to block […] adrenergic receptor n guinea pig right atria at a duration of 3h. In kind it is organism-based.
Experiment [6] has the same target. Kind of experiment: The compound was tested in vivo for its ability to block Beta-1 adrenergic receptor in guinea pig right atria at a duration of 3h. In kind it is functional, organism-based.
For experiment [7] the target is unchanged.
Description: The compound was tested in vivo for its ability to block Beta-1 adrenergic receptor in guinea pig right atria at a duration of 40 min
The target is the same in experiment [8]. Briefly: In vivo inhibition of Beta-1 adrenergic receptor in guinea pig right atria after 40 min. In kind it is functional, organism-based.
Experiment [9] has as its target Beta-2 adrenergic receptor (Cavia porcellus). Briefly: The compound was tested in vitro for its ability to block beta-2-adrenergic receptor in guinea pig trachea. As to conditions: read-out: pA2 (converted).
The target in experiment [10] is Beta-1 adrenergic receptor (Cavia porcellus) (UniProt B0FL73). Kind of experiment: The compound was tested in vitro for its ability to block Beta-1 adrenergic receptor in guinea pig right atria; Inactive at 10E-5 M.
Sequence of Beta-1 adrenergic receptor (Cavia porcellus) (B0FL73 1-467): as the sequence (B0FL73 whole entry) above
The target of experiment [11] is Beta-2 adrenergic receptor (Cavia porcellus) (UniProt Q8K4Z4). Briefly: The compound was tested in vitro for its ability to block Beta-2 adrenergic receptor in guinea pig trachea; Inactive at 10E-5 M. In kind it is tissue-based.
Sequence of Beta-2 adrenergic receptor (Cavia porcellus) (UniProt Q8K4Z4) (Q8K4Z4 whole entry, looked up): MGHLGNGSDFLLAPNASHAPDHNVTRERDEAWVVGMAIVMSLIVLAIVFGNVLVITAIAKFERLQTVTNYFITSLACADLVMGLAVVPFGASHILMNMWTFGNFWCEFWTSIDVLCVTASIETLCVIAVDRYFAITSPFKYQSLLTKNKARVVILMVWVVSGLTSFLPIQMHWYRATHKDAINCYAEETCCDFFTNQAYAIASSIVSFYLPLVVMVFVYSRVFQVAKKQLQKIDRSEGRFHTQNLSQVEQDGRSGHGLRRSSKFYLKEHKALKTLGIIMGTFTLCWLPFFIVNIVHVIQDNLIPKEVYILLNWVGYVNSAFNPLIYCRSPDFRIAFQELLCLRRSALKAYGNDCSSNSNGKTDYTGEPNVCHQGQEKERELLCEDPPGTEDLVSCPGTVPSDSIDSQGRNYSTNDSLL
Experiment [12] has as its target T1, Beta-1 adrenergic receptor. Kind of experiment: The compound was tested in vitro for its ability to block Beta-1 adrenergic receptor n guinea pig trachea. The class given is tissue-based. As to conditions: read-out: pA2 (converted).

Calls of active or inactive are those of the source. No cut-off for these calls is given here.

Sequence of Beta-2 adrenergic receptor (Q8K4Z4 whole entry): as the sequence (Q8K4Z4 whole entry, looked up) above

For the compound `NCC(O)COc1cccc2ccccc12` (stereo not given), the figures for the Kb in experiment [1] and in [2] were 501 nM and 316 nM, respectively. On to `CCOC(=O)c1ccc(NCC(O)COc2ccccc2C)cc1` (stereo not given), for which, in experiment [2], the Kb was 7940 nM. In experiment [3], `CC(C)CNCC(O)COc1ccccc1` (stereo not given) registered a Cardio selectivity of 5. For the same compound, the figures for the Kb in [1] and in [2] were 39.8 nM and 10 nM, respectively. For `O=C(CCNCC(O)COc1ccccc1)Oc1ccccc1` (stereo not given), in experiment [4], the Kb is 398 nM. For the same compound, the In vivo duration in experiment [5] is above 60 min. Consider `CCOC(=O)C(NCC(O)COc1ccccc1C)C(=O)OCC` (stereo not given), for which the Kb in experiment [2] is 1260 nM. Same read-out and setting: the result for `CCOC(=O)CCNCC(O)COc1cccc(C)c1` (stereo not given) reads 200 nM. For `CCOC(=O)CC(C)(C)NCC(O)COc1ccccc1C` (stereo not given), the Kb was 7.94 nM in experiment [1] and 3.16 nM in [2]. In [6], this compound came in with an In vivo duration above 60 min. For the compound `CCOC(=O)CCNCC(O)COc1cccc(Cl)c1` (stereo not given), in experiment [6], the In vivo duration is above 60 min. For the compound `Cc1ccccc1OCC(O)CNCC(C)C` (stereo not given), the Kb in experiment [1] was 6.31 nM; in experiment [2], 2.51 nM.

In the case of `O=C(CCNCC(O)COc1ccccc1)Oc1ccc(F)cc1` (stereo not given), the Kb in [4] is 2000 nM. As to `CCOC(=O)CCNCC(O)COc1ccccc1` (stereo not given), the In vivo duration in experiment [7] was found to be 29 min.

Take `CCOC(=O)CCNCC(O)COc1ccccc1C` (stereo not given): the In vivo duration in experiment [8] was 14 min. In addition, in [2], the Kb was 31.6 nM.

In the case of `COc1ccc(CCOC(=O)CCNCC(O)COc2ccccc2)cc1OC` (stereo not given), the values for the Kb in experiment [9] and in experiment [2] were 251 nM and 100 nM, respectively. With `CCOC(=O)CCCNCC(O)COc1ccccc1C` (stereo not given), the In vivo duration in experiment [8] was 15 min; in [6], above 60 min. With `CCOC(=O)CCNCC(O)COc1ccc(OC)cc1` (stereo not given), the Kb in [2] was 1580 nM. On to `CCOC(=O)CCNCC(O)COc1ccc(Cl)cc1` (stereo not given), for which the pA2 result in experiment [10] was “inactive”. As to `O=C(CCNCC(O)COc1ccccc1)OCC(F)(F)F` (stereo not given), the Kb in experiment [2] is 2000 nM. Take `COC(=O)CCNCC(O)COc1ccccc1C` (stereo not given): the Kb in [2] is 31.6 nM.

In the case of `NCC(O)COc1ccccc1` (stereo not given), the Cardio selectivity in [3] was found to be 10. In addition, the Kb in experiment [1] is 1260 nM; in experiment [2], 126 nM.

For `CCOC(=O)CNCC(O)COc1ccccc1C` (stereo not given), in experiment [2], the Kb is 1260 nM. Consider `NC(=O)CNCC(O)COc1cccc2ccccc12` (stereo not given), for which the Kb in experiment [1] and in experiment [2] was 631 nM each time. On to `CCOC(=O)CNCC(O)COc1cccc2ccccc12` (stereo not given), for which, in experiment [8], the In vivo duration was determined as 53 min.

As to `COC(=O)CNCC(O)COc1ccccc1C` (stereo not given), the Kb in experiment [1] was 2000 nM; in experiment [2] it was 3160 nM.

With `O=C(O)CNCC(O)COc1ccccc1` (stereo not given), the pA2 entry in experiment [11] and in [10] was “inactive” in each case. Consider `O=C1CCCN1CC(O)COc1ccccc1` (stereo not given), for which the pA2 entry in experiment [11] and in experiment [10] was “inactive” each time.

With `CCOC(=O)CCCCNCC(O)COc1ccccc1C` (stereo not given), in [8], the In vivo duration came out at 20 min. The Kb in experiment [2] was 15.8 nM. As to `O=C1CCC(=O)N1CC(O)COc1ccccc1` (stereo not given), the pA2 entry in experiment [10] is “inactive”. `CCOC(=O)CCNCC(O)COc1ccccc1Cl` (stereo not given) yielded an In vivo duration in experiment [6] above 60 min. With `CCOC(=O)CCNCC(O)COc1cccc2ccccc12` (stereo not given), in experiment [8], the In vivo duration stood at 17 min. Also, the Kb is 50.1 nM in experiment [1] and 39.8 nM in [2].

In the case of `COC(=O)CCNCC(O)COc1cccc2ccccc12` (stereo not given), in experiment [1], the Kb was 100 nM. For the compound `CCOC(=O)CCNCC(O)COc1cccc(OC)c1` (stereo not given), the Kb in [2] was 398 nM.

Take `CCOC(=O)c1cccc(NCC(O)COc2ccccc2C)c1` (stereo not given): the Kb in experiment [2] was 6310 nM. Regarding `CCOC(=O)CCNCC(O)COc1c(C)cccc1C` (stereo not given), the Kb was 794 nM in experiment [4] and 1000 nM in experiment [1]. The compound `CCOC(=O)c1ccc(CNCC(O)COc2ccccc2C)cc1` (stereo not given) returned a Cardio selectivity in [3] of 5. The values for the Kb in experiment [12] and in [2] were 1260 nM and 251 nM, respectively.

Take `CC(C)CNCC(O)COc1cccc2ccccc12` (stereo not given): the In vivo duration in [8] is 46 min; in experiment [6] it was above 60 min. Also, the Kb was 1.26 nM in experiment [1] and 2 nM in experiment [2].
